Measurements published in patent US4820695A, “C-20-dihydro-deoxy-(cyclic amino)-derivatives of macrolide antibiotics” (priority 1987, dated 1989).
Values after ≈ are worked out from the molar mass of the structure shown. Where two headings read alike, the source gives them in different places.

Experiments:
Escherichia coli EC14 = assay: MIC, standard agar-dilution assay (Table IX); assay type: cell-based; details: read-out: MIC
[1] = tested on: Streptococcus Group D X66; assay: MIC, standard agar-dilution assay (Table IX); assay type: cell-based; details: read-out: MIC
[2] = tested on: Staphylococcus epidermidis 222; assay: MIC, standard agar-dilution assay (Table IX); assay type: cell-based; details: read-out: MIC
[3] = tested on: Staphylococcus aureus V41; assay: MIC, standard agar-dilution assay (Table IX); assay type: cell-based; details: Staphylococcus aureus V41, Penicillin-resistant strain, read-out: MIC
[4] = tested on: Haemophilus influenzae 76; assay: MIC, standard agar-dilution assay (Table IX); assay type: cell-based; details: Haemophilus influenzae 76, Ampicillin-resistant strain, read-out: MIC
[5] = tested on: Staphylococcus aureus S13E; assay: MIC, standard agar-dilution assay (Table IX); assay type: cell-based; details: Staphylococcus aureus, S13E
Escherichia coli TEM = assay: MIC, standard agar-dilution assay (Table IX); assay type: cell-based; details: read-out: MIC
Klebsiella X26 = assay: MIC, standard agar-dilution assay (Table IX); assay type: cell-based; details: read-out: MIC
Streptococcus sp. 19F = assay: MIC, broth-dilution microtiter test (Table X); assay type: cell-based; details: read-out: MIC
Text: (§1) The MIC's in Table X were obtained using conventional broth-dilution microtiter tests.

[6] = tested on: Mycoplasma gallisepticum 29C; assay: MIC, broth-dilution microtiter test (Table X); assay type: cell-based; details: Mycoplasmoides gallisepticum, read-out: MIC
Text: as §1

Mycoplasma hyorhinis 29E = assay: MIC, broth-dilution microtiter test (Table X); assay type: cell-based; details: read-out: MIC
Text: as §1

[7] = tested on: Pasteurella multocida 17E; assay: MIC, broth-dilution microtiter test (Table X); assay type: cell-based; details: Bovine isolate, read-out: MIC
Text: as §1

[8] = tested on: Mycoplasma hyopneumoniae S5972; assay: MIC, broth-dilution microtiter test (Table X); assay type: cell-based; details: Mesomycoplasma hyopneumoniae, read-out: MIC
Text: as §1

[9] = tested on: Pasteurella hemolytica 22C; assay: MIC, broth-dilution microtiter test (Table X); assay type: cell-based; details: read-out: MIC
Text: as §1

Mycoplasma synoviae 40A = assay: MIC, broth-dilution microtiter test (Table X); assay type: cell-based; details: Mycoplasmopsis synoviae, read-out: MIC
Text: as §1

[10] = tested on: Pasteurella multocida 60A; assay: MIC, broth-dilution microtiter test (Table X); assay type: cell-based; details: Avian isolate, read-out: MIC
Text: as §1

Staphylococcus aureus = assay: MIC, broth-dilution microtiter test (Table X); assay type: cell-based; details: read-out: MIC
Text: as §1

[11] = tested on: Streptococcus Group D 2041; assay: MIC, standard agar-dilution assay (Table IX); assay type: cell-based; details: GROUPD2041, read-out: MIC
[12] = tested on: Staphylococcus aureus X400; assay: MIC, standard agar-dilution assay (Table IX); assay type: cell-based; details: Staphylococcus aureus X400, Methicillin-resistant strain, read-out: MIC
[13] = tested on: Streptococcus pneumoniae Park I; assay: MIC, standard agar-dilution assay (Table IX); assay type: cell-based; details: Streptococcus pneumoniae Park I; agar-dilution; read-out: MIC
Escherichia coli N10 = assay: MIC, standard agar-dilution assay (Table IX); assay type: cell-based; details: read-out: MIC
[14] = Titratable groups in 66% aqueous DMF (Tables XIV-XVI); assay type: physicochemical
Text: ^c Run in 66% aqueous DMF
^d Run in 66% aqueous DMF

[15] = tested on: Staphylococcus epidermidis EPI1; assay: MIC, standard agar-dilution assay (Table IX); assay type: cell-based; details: Staphylococcus epidermidis EPI1; agar-dilution; read-out: MIC
[16] = tested on: Streptococcus pyogenes C203; assay: MIC, standard agar-dilution assay (Table IX); assay type: cell-based; details: read-out: MIC
Staphyloccus aureus X1.1 = assay: MIC, standard agar-dilution assay (Table IX); assay type: cell-based, Staphylococcus aureus; details: Staphylococcus aureus, read-out: MIC
[17] = tested on: Haemophilus influenzae C.L.; assay: MIC, standard agar-dilution assay (Table IX); assay type: cell-based; details: Ampicillin-sensitive strain, read-out: MIC
[18] = tested on: Streptococcus pyogenes C203; assay: ED50 in mice experimentally infected with S. pyogenes C203 (Table XI); assay type: in vivo; details: Streptococcus pyogenes, doses given 1 and 4 hours postinfection, read-out: ED50
Protocol: The C-20 modified derivatives of this invention have shown in vivo antimicrobial activity against experimentally-induced infections in laboratory animals. When two doses of test compound were administered to mice experimentally infected with S. pyogenes C203, the activity observed was measured as an ED50 value [effective dose in mg/kg to protect 50% of the test animals: see Warren Wick, et al., J. Bacteriol. 81, 233-235 (1961)].
^a mg/kg × 2; doses given 1 and 4 hours postinfection

[19] = Titratable groups (first value)
[20] = 66% aqueous DMF, read-out: Titratable groups
[21] = 66% aqueous DMF, read-out: Titratable groups (first value)

CCC1OC(=O)CC(O)C(C)C(OC2OC(C)C(O)C(N(C)C)C2O)C(CCN2CCCC(C(=O)N(CC)CC)C2)CC(C)C(=O)C=CC(C)=CC1COC1OC(C)C(O)C(OC)C1OC (centres unmarked) [Compound D15, 20-DH-DO-20-[3-(N,N-diethylcarbamoyl)piperidin-1-yl]desmycosin]
MIC (Escherichia coli EC14): > 128 µg/mL | MIC [1]: 32 µg/mL (≈ 34 µM) | MIC [2]: 1 µg/mL (≈ 1.06 µM) | MIC [3]: 2 µg/mL (≈ 2.13 µM) | MIC [4]: 32 µg/mL (≈ 34 µM) | MIC [5]: 2 µg/mL (≈ 2.13 µM) | MIC (Escherichia coli TEM): 64 µg/mL (≈ 68.1 µM) | MIC (Klebsiella X26): 32 µg/mL (≈ 34 µM) | MIC (Streptococcus sp. 19F): 12.5 µg/mL (≈ 13.3 µM) | MIC [6]: 3.12 µg/mL (≈ 3.32 µM) | MIC (Mycoplasma hyorhinis 29E): > 50 µg/mL | MIC [7]: 12.5 µg/mL (≈ 13.3 µM) | MIC [8]: 3.12 µg/mL (≈ 3.32 µM) | MIC [9]: 25 µg/mL (≈ 26.6 µM) | MIC (Mycoplasma synoviae 40A): 1.56 µg/mL (≈ 1.66 µM) | MIC [10]: 12.5 µg/mL (≈ 13.3 µM) | MIC (Staphylococcus aureus): 6.25 µg/mL (≈ 6.65 µM) | MIC [11]: 32 µg/mL (≈ 34 µM) | MIC [12]: 4 µg/mL (≈ 4.25 µM) | MIC [13]: 1 µg/mL (≈ 1.06 µM) | MIC (Escherichia coli N10): > 128 µg/mL | pKa ([14]; Titratable groups): 8.6 | pKa [14, 19]: 7.4 | MIC [15]: 2 µg/mL (≈ 2.13 µM) | MIC [16]: 0.5 µg/mL (≈ 0.532 µM) | MIC (Staphyloccus aureus X1.1): 2 µg/mL (≈ 2.13 µM) | MIC [17]: 32 µg/mL (≈ 34 µM)

CCC1OC(=O)CC(O)C(C)C(OC2OC(C)C(O)C(N(C)C)C2O)C(CCN2CCCCCC2)CC(C)C(=O)C=CC(C)=CC1COC1OC(C)C(O)C(O)C1OC (centres unmarked) [Compound L4, 20-DH-DO-20-(hexahydroazepin-1-yl)lactenocin]
MIC (Escherichia coli EC14): > 128 µg/mL | MIC [1]: 32 µg/mL (≈ 38 µM) | MIC [2]: 1 µg/mL (≈ 1.19 µM) | MIC [3]: 2 µg/mL (≈ 2.38 µM) | MIC [4]: 16 µg/mL (≈ 19 µM) | MIC [5]: 2 µg/mL (≈ 2.38 µM) | MIC (Escherichia coli TEM): > 128 µg/mL | MIC (Klebsiella X26): 16 µg/mL (≈ 19 µM) | MIC (Streptococcus sp. 19F): 6.25 µg/mL (≈ 7.43 µM) | MIC [6]: 12.5 µg/mL (≈ 14.9 µM) | MIC (Mycoplasma hyorhinis 29E): 50 µg/mL (≈ 59.4 µM) | MIC [7]: 12.5 µg/mL (≈ 14.9 µM) | MIC [8]: 1.56 µg/mL (≈ 1.85 µM) | MIC [9]: 25 µg/mL (≈ 29.7 µM) | MIC (Mycoplasma synoviae 40A): 1.56 µg/mL (≈ 1.85 µM) | MIC [10]: 12.5 µg/mL (≈ 14.9 µM) | MIC (Staphylococcus aureus): 6.25 µg/mL (≈ 7.43 µM) | MIC [11]: 16 µg/mL (≈ 19 µM) | MIC [12]: 2 µg/mL (≈ 2.38 µM) | MIC [13]: 8 µg/mL (≈ 9.51 µM) | MIC (Escherichia coli N10): > 128 µg/mL | pKa ([14]; Titratable groups): 9.7 | pKa [14, 19]: 8 | MIC [15]: 2 µg/mL (≈ 2.38 µM) | MIC [16]: 1 µg/mL (≈ 1.19 µM) | MIC (Staphyloccus aureus X1.1): 2 µg/mL (≈ 2.38 µM) | MIC [17]: 16 µg/mL (≈ 19 µM)

CCC1OC(=O)CC(O)C(C)C(OC2OC(C)C(OC3CC(C)(O)C(O)C(C)O3)C(N(C)C)C2O)C(CCN2CCCCCC2)CC(C)C(=O)C=CC(C)=CC1COC1OC(C)C(O)C(O)C1OC (centres unmarked) [Compound M3, 20-DH-DO-20-(hexahydroazepin-1-yl)macrocin]
MIC (Escherichia coli EC14): > 128 µg/mL | MIC [1]: > 128 µg/mL | MIC [2]: 2 µg/mL (≈ 2.03 µM) | MIC [3]: 8 µg/mL (≈ 8.12 µM) | MIC [4]: 128 µg/mL (≈ 130 µM) | MIC [5]: 8 µg/mL (≈ 8.12 µM) | MIC (Escherichia coli TEM): > 128 µg/mL | MIC (Klebsiella X26): > 128 µg/mL | MIC (Streptococcus sp. 19F): 50 µg/mL (≈ 50.7 µM) | MIC [6]: 6.25 µg/mL (≈ 6.34 µM) | MIC (Mycoplasma hyorhinis 29E): > 50 µg/mL | MIC [7]: > 50 µg/mL | MIC [8]: 12.5 µg/mL (≈ 12.7 µM) | MIC [9]: 50 µg/mL (≈ 50.7 µM) | MIC (Mycoplasma synoviae 40A): 25 µg/mL (≈ 25.4 µM) | MIC [10]: > 50 µg/mL | MIC (Staphylococcus aureus): 12.5 µg/mL (≈ 12.7 µM) | MIC [11]: > 128 µg/mL | MIC [12]: 32 µg/mL (≈ 32.5 µM) | MIC [13]: 2 µg/mL (≈ 2.03 µM) | ED50 ([18]; C203, Oral): > 100 mg/kg | ED50 ([18]; C203, sc, Subcutaneous): > 10 mg/kg | MIC (Escherichia coli N10): > 128 µg/mL | pKa [14, 20]: 9.4 | pKa [14, 21]: 6.91 | MIC [15]: 8 µg/mL (≈ 8.12 µM) | MIC [16]: 4 µg/mL (≈ 4.06 µM) | MIC (Staphyloccus aureus X1.1): 4 µg/mL (≈ 4.06 µM) | MIC [17]: 128 µg/mL (≈ 130 µM)

CCC1OC(=O)CC(O)C(C)C(OC2OC(C)C(OC3CC(C)(O)C(O)C(C)O3)C(N(C)C)C2O)C(CCN2CCCCCCC2)CC(C)C(=O)C=CC(C)=CC1COC1OC(C)C(O)C(O)C1OC (centres unmarked) [Compound M4, 20-DH-DO-20-(octahydroazocin-1-yl)macrocin]
MIC (Escherichia coli EC14): > 128 µg/mL | MIC [1]: > 128 µg/mL | MIC [2]: 2 µg/mL (≈ 2 µM) | MIC [3]: 4 µg/mL (≈ 4 µM) | MIC [4]: 128 µg/mL (≈ 128 µM) | MIC [5]: 4 µg/mL (≈ 4 µM) | MIC (Escherichia coli TEM): > 128 µg/mL | MIC (Klebsiella X26): > 128 µg/mL | MIC (Streptococcus sp. 19F): 12.5 µg/mL (≈ 12.5 µM) | MIC [6]: 3.12 µg/mL (≈ 3.12 µM) | MIC (Mycoplasma hyorhinis 29E): > 50 µg/mL | MIC [7]: > 50 µg/mL | MIC [8]: 6.25 µg/mL (≈ 6.25 µM) | MIC [9]: > 50 µg/mL | MIC (Mycoplasma synoviae 40A): 6.25 µg/mL (≈ 6.25 µM) | MIC [10]: > 50 µg/mL | MIC (Staphylococcus aureus): 12.5 µg/mL (≈ 12.5 µM) | MIC [11]: > 128 µg/mL | MIC [12]: 8 µg/mL (≈ 8.01 µM) | MIC [13]: 32 µg/mL (≈ 32 µM) | MIC (Escherichia coli N10): > 128 µg/mL | pKa [14, 20]: 9.25 | pKa [14, 21]: 6.9 | MIC [15]: 4 µg/mL (≈ 4 µM) | MIC [16]: 2 µg/mL (≈ 2 µM) | MIC (Staphyloccus aureus X1.1): 4 µg/mL (≈ 4 µM) | MIC [17]: 128 µg/mL (≈ 128 µM)
